Series [1] can be described thus: Test Example 7 (1): acute toxicity test in mice. The following applies: mouse, in vivo, read-out: 50% lethal dose (LD50). As for the experimental part: (1) Acute toxicity test of amosulalol hydrochloride with mice:
Investigation was conducted on the acute toxicity of amosulalol hydrochloride in mice through oral administration or intravenous administration.
Amosulalol was given to 7-weeks aged ICR mice by oral administration by use of an oral probe or through a tail vein.

A further series concerns choroidal blood flow. The note with it: cited from earlier work.
Series [2] deals with Normal Intraocular Pressure. Put plainly: Test Example 1 (1): intraocular pressure reducing activity on normal intraocular pressure, pigmented rabbits. The note with it: 0.5% ophthalmic solution, 30 min and 1 hour after topical application. Type of series: in vivo, pigmented rabbits (Dutch belted rabbits). As for the experimental part: Intraocular Pressure Reducing Activity of Amosulalol Hydrochloride on Normal Intraocular Pressure in Pigmented Rabbits Male pigmented rabbits (Dutch belted rabbits) weighing about 2 kg, after having been confirmed to be free from ocular abnormalities; were bred in a breeding room maintained at a temperature of 24± 4° C. and at a relative humidity of 55± 15%, while they were given solid food (Labo RG-RO manufactured by Nihon Nohsan Kogyo K.K.) at a daily rate of 100 g per rabbit and allowed free access to tap water as drinking water. As a test drug, amosulalol hydrochloride was processed into 0.05% (hereinafter, the term "%" is to be understood to designate "w/v %") and 1.0% aqueous solutions which were used in the test, and 0.5% timolol maleate ophthalmic solution [Timoptol (registered trademark): Ban-yu Pharmaceutical Co.] and physiological saline were used as a positive control drug and a control substance, respectively. (1) Measurement of intraocular pressure: Thirty two (32) rabbits were divided into four groups each consisting of 8 rabbits, and 50 μl of test drugs as well as the control drug and physiological saline were applied topically to one eye each of the individual rabbits, with the other being left untreated. Before instillation and 0.5, 1, 2, 3, 4, 6 and 8 hours after topical application,intraocular pressure for both of eyes of each rabbit was measured using a Pneumatonograph (manufactured by Alcon Co. Hereinafter referred to briefly as "PTG"). Shown in FIG. 1 are time-course changes of intraocular pressure taken with the eyes treated by instillation of each of the test drugs, control drug and physiological saline, with time (hour) after instillation taken as abscissa and intraocular pressure (mmHg as ordinate; each value in mean±S.E. (number of cases is 8). The signs "a", "b", "d" and "e" designate physiological saline, 0.05% aqueous solution of amosulalol hydrochloride, 1.0% aqueous solution of amosulalol hydrochloride, and 0.5% ophthalmic solution of timolol maleate, respectively.

Series [3] concerns Normal Intraocular Pressure. The experiment in a line: Test Example 2 (1): intraocular pressure reducing activity on normal intraocular pressure, pigmented rabbits. Type of series: in vivo, pigmented rabbits (Dutch belted rabbits). The following applies: 0.5% ophthalmic solution, treated eyes, 30 min and 1 hour after topical application. How it is done: Intraocular Pressure Reducing Activity of Amosulalol Hydrochloride on Normal Intraocular Pressure in Pigmented Rabbits Forty (40) male pigmented rabbits (Dutch belted rabbits) weighing about 2 kg, after having been confirmed to be free from ocular abnormalities, were bred in a breeding room maintained at a temperature of 24± 4° C. and at a relative humidity of 55± 15%, while they were fed solid food (Labo RG-RO, manufactured by Nihon Nohsan Kogyo K.K.) at a daily rate of 100 g per rabbit and allowed free access to tap water as drinking water. As a test drug, amosulalol hydrochloride was processed into 0.05%, 0.5% and 1.0% aqueous solutions which were used in the test, and 0.5% timolol maleate ophthalmic solution [Timoptol (registered trademark): Ban-yu Pharmaceutical Co.] and physiological saline were used as a positive control drug and a control substance, respectively. (1) Measurement of intraocular pressure: Forty (40) rabbits were divided into five groups. each consisting of 8 heads, and 50 μl of test drug as well as the control drug and physiological saline were applied topically to one eye each of the individual rabbits, with the other being left untreated. Before instillation and 0.5, 1, 2, 3, 4, 6 and 8 hours after topical application respectively, intraocular pressure for both eyes of each rabbit was measured using PTG. Time-course changes of intraocular pressure measurements taken with the eyes treated by instillation of each of the test drugs, control drug and physiological saline, are illustrated in FIGS. 2 (for treated eyes) and 3 (for non-treated eyes), respectively, with time (hour) after instillation taken as abscissa and intraocular pressure (mmHg) as ordinate; each value in mean ± S.E. (the number in each case is 8). The signs "a", "b", "c", "d" and "e" designate physiological saline, 0.05% aqueous solution of amosulalol hydrochloride, 0.5% aqueous solution of amosulalol hydrochloride, 1.0% aqueous solution of amosulalol hydrochloride and 0.5% solution of timolol maleate, respectively.

Where a name gives a salt, the structure may show the parent alone. Read-outs that look alike come from different tables or passages of the source.

Turning to `COc1ccccc1OCCNCC(O)c1ccc(C)c(S(N)(=O)=O)c1` (stereo not shown) [Amosulalol, 5-[1-hydroxy-2-[2-(2-methoxyphenoxy)ethylamino]ethyl]-2-methylbenzenesulfonamide], the LD50 in series [1] (iv, intravenous (tail vein), female mice) was 134 mg/kg; in series [1] (iv, intravenous (tail vein), male mice), 104 mg/kg; in series [1] (po, female mice) it was 5700 mg/kg; in series [1] (po, male mice), 6500 mg/kg.
As for `CCCC(=O)N1CCCN(c2nc(N)c3cc(OC)c(OC)cc3n2)CC1` [bunazosin hydrochloride], the choroidal blood flow result with choroidal blood flow was “can increase choroidal blood flow”.
For `CC(C)(C)NC[C@H](O)COc1nsnc1N1CCOCC1` [timolol maleate, reference compound], the “drop in intraocular pressure” value in series [2] and in series [3] was 2.4 mmHg throughout.

The record behind these values is US5663205A, “Pharmaceutical composition for use in glaucoma treatment” (Senju Pharmaceutical Co. Ltd., priority 1992, dated 1997).
